Experiment [1] relates to HepG2. Briefly: Antiproliferative activity against human HepG2 cells assessed as cell growth inhibition measured after 48 hrs by MTT assay. The conditions noted are these: HepG2, 48 h. The format is functional, cell-based.
In the next experiment the test system is HL-60. Briefly: Antiproliferative activity against human HL60 cells assessed as cell growth inhibition measured after 48 hrs by MTT assay. The format is functional, cell-based. The conditions noted are these: HL-60, 48 h.
The subject of the next experiment is MCF7. The experiment is described as follows: Antiproliferative activity against human MCF7 cells assessed as cell growth inhibition measured after 48 hrs by MTT assay. The note with it: MCF7, 48 h. The format is functional, cell-based.
Experiment [2] concerns the target Tubulin (Sus scrofa, UniProt P02554+P02550). Briefly: Inhibition of porcine brain tubulin polymerization assessed as decrease in fluorescence intensity measured every 60 sec for 90 mins in presence of GTP by DAPI staining based fluorescence assay.
Experiment [3] addresses Tubulin beta (Homo sapiens) (UniProt P68371+Q9H4B7+Q13509+P04350+Q3ZCM7+P07437+Q13885+Q9BVA1+Q9BUF5+A6NNZ2). The experiment is described as follows: Inhibition of tubulin beta polymerization in human HepG2 cells at IC50 using TMB substrate preincubated for 2 hrs followed by substrate addition measured after 15 to 20 mins in presence of GTP by ELISA relative to control. It counts as cell-based. In general terms: In an ELISA, binding on a coated surface is turned into a signal by an enzyme label.

For experiment [4], the system named is HepG2. The experiment is described as follows: Cell cycle arrest in human HepG2 cells assessed as accumulation at G0/G1 phase at IC50 concentration by DNase/propidium iodide staining based flow cytometry analysis (reference value: 57.43 %). The format is functional. (In general: In flow cytometry, cells or beads pass a laser one at a time.)
In experiment [5] the test system is HepG2. The experiment is described as follows: Cell cycle arrest in human HepG2 cells assessed as accumulation at S phase at IC50 concentration by DNase/propidium iodide staining based flow cytometry analysis (reference value: 32.51 %). It counts as functional.
Experiment [6] deals with HepG2. The experiment is described as follows: Cell cycle arrest in human HepG2 cells assessed as accumulation at G2/M phase at IC50 concentration by DNase/propidium iodide staining based flow cytometry analysis (reference value: 10.06 %). The format is functional.
The test system of experiment [7] is HepG2. Briefly: Cell cycle arrest in human HepG2 cells assessed as accumulation at pre-G1 phase at IC50 concentration by DNase/propidium iodide staining based flow cytometry analysis (reference value: 1.59 %). The format is functional.
Experiment [8] has as its system HepG2. The experiment is described as follows: Induction of apoptosis in human HepG2 cells assessed as viable cells at IC50 concentration by annexinV-FITC/propidium iodide staining based flow cytometry (reference value: 98.41 %). The format is functional.
In experiment [9] the test system is HepG2. Briefly: Induction of apoptosis in human HepG2 cells assessed as early apoptotic cells at IC50 concentration by annexinV-FITC/propidium iodide staining based flow cytometry (reference value: 0.69 %). It counts as functional.
The subject of experiment [10] is HepG2. The experiment is described as follows: Induction of apoptosis in human HepG2 cells assessed as late apoptotic cells at IC50 concentration by annexinV-FITC/propidium iodide staining based flow cytometry (reference value: 0.38 %). The format is functional.
The test system of experiment [11] is HepG2. Briefly: Induction of apoptosis in human HepG2 cells assessed as necrotic cells at IC50 concentration by annexinV-FITC/propidium iodide staining based flow cytometry (reference value: […]). It counts as functional.
Experiment [12] relates to HepG2. Briefly: Induction of apoptosis in human HepG2 cells assessed as activation of caspase 3 measured after 0.5 to 1 hrs by fluorescence assay relative to control. It counts as functional.
Experiment [13] has as its target Tubulin (Bos taurus, UniProt Q6B856+Q862L2+Q862F3). Briefly: Inhibition of [3H] colchicine binding to bovine brain tubulin incubated for 30 mins by scintillation proximity assay.

A word on the IC50: it is the concentration at which inhibition is half-maximal. Consider `COc1cc(-c2nc(C(=O)Nc3ccc(F)c(F)c3F)nn2-c2ccc(F)c(Cl)c2)cc(OC)c1OC`, for which the half-inhibitory concentration (IC50) was 410 nM in the experiment on HepG2 [1], 1320 nM in the experiment with HL-60 and 140 nM with MCF7.
Broadly, the inhibition is the drop in the measured response relative to a control, in per cent. On to `COc1ccc(-n2nc(C(=O)Nc3ccc(F)c(F)c3F)nc2-c2cc(OC)c(OC)c(OC)c2)cc1Cl`, for which the IC50 on Tubulin [2] was determined as 760 nM; in the experiment with HepG2 [1], 40 nM; in the experiment with HL-60 it was 2660 nM; with MCF7 it was 2100 nM. For the same molecule, in experiment [3], the inhibition stood at 82%. Also, the Activity in the experiment on HepG2 [4] is 26.31%; in the experiment on HepG2 [5] it was 18.61%; in the experiment on HepG2 [6], 55.08%; in the experiment on HepG2 [7], 31.04%; in the experiment on HepG2 [8], 68.96%; with HepG2 [9] it was 6.06%. Also, the figures for the Activity in the experiment on HepG2 [10] and in the experiment with HepG2 [11] were 22.2% and 2.78%, respectively. In addition, in the experiment on HepG2 [12], the “fold change (FC)” value worked out at 9.
For the molecule `COc1cc(-c2nc(C(=O)Nc3ccccc3)nn2-c2ccc(F)c(Cl)c2)cc(OC)c1OC`, the half-inhibitory concentration (IC50) was 2230 nM with HepG2 [1], 1000 nM in the experiment with HL-60 and 170 nM with MCF7.
Taken in the same sequence, the figures for `COc1cc(-c2nc(C(=O)Nc3ccc(F)c(Cl)c3)nn2-c2ccc(F)c(Cl)c2)cc(OC)c1OC` were 900 nM, 5470 nM and 120 nM.
With `COc1ccc(NC(=O)c2nc(-c3cc(OC)c(OC)c(OC)c3)n(-c3ccc(F)c(Cl)c3)n2)c(C)c1`, the half-maximal inhibitory concentration (IC50) in the experiment with HepG2 [1] came out at 580 nM; in the experiment on HL-60, 360 nM; in the experiment on MCF7 it was 1560 nM.
Taken in the same sequence, the figures for `COc1cc(-c2nc(C(=O)Nc3cc(F)cc(F)c3)nn2-c2ccc(F)c(Cl)c2)cc(OC)c1OC` were 710 nM, 3750 nM and 4910 nM.
As for `COc1cc(-c2nc(C(=O)Nc3ccccc3F)nn2-c2ccc(F)c(Cl)c2)cc(OC)c1OC`, the half-inhibitory concentration (IC50) with HepG2 [1] was found to be 12700 nM; in the experiment with HL-60, 10 nM; with MCF7 it was 190 nM.
For `COc1cc(-c2nc(C(=O)Nc3ccc(OC(F)(F)F)cc3)nn2-c2ccc(F)c(Cl)c2)cc(OC)c1OC`, in that order: 100 nM, 160 nM and 310 nM.
A word on the Kd: it is the constant that tells how readily two partners part at equilibrium. Read a high Kd as weaker binding. The Ki is a dissociation constant, usually derived from enzyme kinetics or from competition with a known ligand. Consider `COc1ccccc1NC(=O)c1nc(-c2cc(OC)c(OC)c(OC)c2)n(-c2ccc(F)c(Cl)c2)n1`, for which the half-maximal inhibitory concentration (IC50) on Tubulin [2] came to 1030 nM; with HepG2 [1] it was 350 nM; in the experiment on HL-60, 4 nM; in the experiment on MCF7, 1510 nM; at Tubulin [13], 3580 nM. The inhibition in experiment [3] amounted to 62%. This molecule also registered a dissociation constant (Kd) on Tubulin [13] of 540 nM. Also, the inhibition constant Ki at Tubulin [13] came out at 260 nM. The Activity is recorded as 34.77% in the experiment with HepG2 [4]; 24.67% in the experiment with HepG2 [5]; 40.56% in the experiment on HepG2 [6]; 19.22% in the experiment with HepG2 [7]; 80.78% in the experiment with HepG2 [8]; 5.24% in the experiment on HepG2 [9]. Further, the results for the Activity in the experiment on HepG2 [10] and in the experiment with HepG2 [11] were 11.32% and 2.66%, respectively. Moreover, in the experiment with HepG2 [12], the “fold change (FC)” value is recorded as 7.
Turning to `COc1cc(-c2nc(C(=O)Nc3cccc(F)c3)nn2-c2ccc(F)c(Cl)c2)cc(OC)c1OC`, the 50% inhibitory concentration (IC50) with HepG2 [1] amounted to 990 nM; in the experiment with HL-60, 620 nM; with MCF7, 110 nM.
Take `COc1ccc(NC(=O)c2nc(-c3cc(OC)c(OC)c(OC)c3)n(-c3ccc(F)c(Cl)c3)n2)cc1Cl`: the figures for the IC50 in the experiment with HepG2 [1], in the experiment with HL-60 and in the experiment on MCF7 were 2140 nM, 700 nM and 1010 nM, respectively.
Taken in the same sequence, the figures for `COc1ccc(-n2nc(C(=O)Nc3ccc(OC(F)(F)F)cc3)nc2-c2cc(OC)c(OC)c(OC)c2)cc1Cl` were 7110 nM, 810 nM and 39 nM.
For `CCOc1ccc(NC(=O)c2nc(-c3cc(OC)c(OC)c(OC)c3)n(-c3ccc(F)c(Cl)c3)n2)cc1`, in that order: 1490 nM, 600 nM and 520 nM.
Turning to `COc1cccc(NC(=O)c2nc(-c3cc(OC)c(OC)c(OC)c3)n(-c3ccc(F)c(Cl)c3)n2)c1`, the values for the half-inhibitory concentration (IC50) with HepG2 [1], with HL-60 and in the experiment with MCF7 were 560 nM, 800 nM and 440 nM, respectively.
`COc1ccc(NC(=O)c2nc(-c3cc(OC)c(OC)c(OC)c3)n(-c3ccc(F)c(Cl)c3)n2)cc1`: the values for the IC50 in the experiment with HepG2 [1], in the experiment with HL-60 and with MCF7 were 750 nM, 2260 nM and 650 nM, respectively.
Turning to `COc1cc(-c2nc(C(=O)Nc3ccc(F)cc3)nn2-c2ccc(F)c(Cl)c2)cc(OC)c1OC`, the concentration for half-maximal inhibition (IC50) in the experiment with HepG2 [1] turned out to be 520 nM; in the experiment on HL-60, 300 nM; in the experiment with MCF7, 180 nM.
As to `COc1ccc(-n2nc(C(=O)Nc3ccc(F)c(Cl)c3)nc2-c2cc(OC)c(OC)c(OC)c2)cc1Cl`, the IC50 at Tubulin [2] worked out at 700 nM; in the experiment with HepG2 [1] it was 680 nM; with HL-60, 230 nM; in the experiment with MCF7, 30 nM; at Tubulin [13] it was 2110 nM. Moreover, the inhibition in experiment [3] is 73%. Moreover, the dissociation constant (Kd) on Tubulin [13] amounted to 320 nM. The molecule further returned a Ki at Tubulin [13] of 150 nM.
Consider `COc1cc(-c2nc(C(=O)Nc3ccc(C(=O)O)cc3)nn2-c2ccc(F)c(Cl)c2)cc(OC)c1OC`, for which the half-maximal inhibitory concentration (IC50) with HepG2 [1] amounted to 1590 nM; in the experiment with HL-60, 1180 nM; in the experiment on MCF7, 50 nM.
Regarding `COc1ccc(C)cc1NC(=O)c1nc(-c2cc(OC)c(OC)c(OC)c2)n(-c2ccc(F)c(Cl)c2)n1`, the IC50 stood at 2820 nM in the experiment on HepG2 [1], 1820 nM with HL-60 and 130 nM with MCF7.
